Experimental data: patent publication US20240252650A1, “LIPID COMPOUNDS AND LIPID NANOPARTICLE COMPOSITIONS” (SUZHOU ABOGEN BIOSCIENCES CO., LTD., priority 2021, published 2024)

Key:
[1] = Lipid nanoparticle size and polydispersity by dynamic light scattering (Malvern Zetasizer Nano ZS); format: physicochemical; conditions: LNP: cationic lipid/DSPC/cholesterol/PEG-lipid 50:10:38.5:1.5, mRNA; table of Example 15
Protocol: (§1) Briefly, a cationic lipid provided herein, DSPC, cholesterol, and PEG-lipid were solubilized in ethanol at a molar ratio of 50:10:38.5:1.5, and mRNA were diluted in 10 to 50 mM citrate buffer, pH=4. The LNPs were prepared at a total lipid to mRNA weight ratio of approximately 10:1 to 30:1 by mixing the ethanolic lipid solution with the aqueous mRNA solution at a volume ratio of 1:3 using a microfluidic apparatus, total flow rate ranging from 9-30 mL/min. Ethanol were thereby removed and replaced by DPBS using dialysis. Finally, the lipid nanoparticles were filtered through a 0.2 μm sterile filter.
(§2) Lipid nanoparticle size were determined by dynamic light scattering using a Malvern Zetasizer Nano ZS (Malvern UK) using a 173° backscatter detection mode. The encapsulation efficiency of lipid nanoparticles were determined using a Quant-it Ribogreen RNA quantification assay kit (Thermo Fisher Scientific, UK) according to the manufacturer's instructions.

[2] = Encapsulation efficiency of lipid nanoparticles (Quant-it Ribogreen RNA quantification assay); format: physicochemical; conditions: LNP: cationic lipid/DSPC/cholesterol/PEG-lipid 50:10:38.5:1.5, mRNA; table of Example 15
Protocol: as §1, §2

female Balb/c mice = assay: Animal study: LNPs encapsulating luciferase mRNA, tail vein injection, organ bioluminescence imaging (IVIS Spectrum CT); format: in vivo; conditions: luciferase mRNA LNP, 0.25 mg/kg tail vein; for luciferase expression in bone marrow (in words): 6 h; for bone marrow* Avg Radiance: bone marrow at 6 h; for brain* Avg Radiance: dissected brain at 6 h; for heart* Avg Radiance: dissected heart at 6 h; for kidney* Avg Radiance: dissected kidney at 6 h; for liver* Avg Radiance: dissected liver at 6 h; for lung* Avg Radiance: dissected lung at 6 h; for spleen* Avg Radiance: dissected spleen at 6 h
Protocol: Lipid nanoparticles comprising certain compounds provided herein encapsulating luciferase encoding (luciferase) mRNA were systemically administered to 6-8 week old female Balb/c mice (Charles River Lab, ZheJiang) at 0.25 mg/kg dose by tail vein injection, and mice blood were sampled at specific time points (e.g., 6 hours) post administration. Optical imaging was performed using the IVIS Spectrum CT device (PerkinElmer Inc., Paris, France). The luminescence level was evaluated by an ROI applied to the injection site zone (Living Image software, PerkinElmer Inc., Paris, France).
Radiance of heart, liver, spleen, lung, kidney, brain and bone marrow were taken at 6 h. Dissected organs were placed on a black sheet and imaged with IVIS Spectrum CT (PerkinElmer, Hopkinton, MA). To quantify bioluminescence emission signal, identical regions of interest (ROI) were positioned to encircle each organ region, the imaging signal was quantitated as average radiance (photons/s/cm2/steradian).

[3] = Apparent pKa of LNP formulations by TNS fluorescence assay; format: physicochemical; conditions: LNP cationic lipid/DSPC/cholesterol/DMG-PEG 50/10/38.5/1.5 mol %, table of Example 15
Protocol: As reported in literature, the apparent pKa of LNP formulations correlates with the delivery efficiency of LNPs for nucleic acids in vivo. The apparent pKa of each formulation was determined using an assay based on fluorescence of 2-(p-toluidino)-6-napthalene sulfonic acid (TNS). LNP formulations comprising of cationic lipid/DSPC/cholesterol/DMG-PEG (50/10/38.5/1.5 mol %) in PBS were prepared as described above. TNS was prepared as a 300 uM stock solution in distilled water. LNP formulations were diluted to 0.1 mg/ml total lipid in 3 mL of buffered solutions containing 50 mM sodium citrate, 50 mM sodium phosphate, 50 mM sodium borate, and 30 mM sodium chloride where the pH ranged from 3 to 9. An aliquot of the TNS solution was added to give a final concentration of 0.1 mg/ml and following vortex mixing fluorescence intensity was measured at room temperature in a Molecular Devices Spectramax iD3 spectrometer using excitation and mission wavelengths of 325 nm and 435 nm. A sigmoidal best fit analysis was applied to the fluorescence data and the pKa value was measured as the pH giving rise to half-maximal fluorescent intensity.

SMILES	polydispersity [1]	size (nm) [1]	Encapsulation Efficiency [2]	luciferase expression in bone marrow (in words) (female Balb/c mice)	bone marrow* Avg Radiance (female Balb/c mice)	brain* Avg Radiance (female Balb/c mice)	heart* Avg Radiance (female Balb/c mice)	kidney* Avg Radiance (female Balb/c mice)	liver* Avg Radiance (female Balb/c mice)	lung* Avg Radiance (female Balb/c mice)	spleen* Avg Radiance (female Balb/c mice)	Apparant Pka [3]
CCCCC/C=C\C/C=C\CCCCCCCC(=O)OCC(COC(=O)CCCCN(CCCCCCCO)C1CCC1)COC(=O)CCCC(COC(=O)CCCCCCC)COC(=O)CCCCCCC (stereo not shown) [Compound 129]	0.033	138.5 nm	87.05%	mild expression	2.12 E+04 p/s/cm^2/sr	12.49 E+04 p/s/cm^2/sr	13.05 E+04 p/s/cm^2/sr	17.53 E+04 p/s/cm^2/sr	30.05 E+06 p/s/cm^2/sr	11 E+04 p/s/cm^2/sr	6.57 E+06 p/s/cm^2/sr	6.477
CCCCC/C=C\C/C=C\CCCCCCCC(=O)OCC(COC(=O)CCCC(COC(=O)CCCCCCC)COC(=O)CCCCCCC)COC(=O)OCCCN(CCOCCO)C1CCC1 (stereo not shown) [Compound 127]	0.037	87.99 nm	85.39%	mild expression	0.95 E+04 p/s/cm^2/sr	3.91 E+04 p/s/cm^2/sr	4.33 E+04 p/s/cm^2/sr	10.77 E+04 p/s/cm^2/sr	13.01 E+06 p/s/cm^2/sr	9.38 E+04 p/s/cm^2/sr	4.76 E+06 p/s/cm^2/sr	6.398
CCCCC/C=C\C/C=C\CCCCCCCC(=O)OCC(COC(=O)CCCCN(CCO)C1CCC1)COC(=O)CCC(OCCCCCCCC)OCCCCCCCC (stereo not shown) [Compound 116]	0.049	78.48 nm	92.40%	–	−0.16 E+04 p/s/cm^2/sr	13.52 E+04 p/s/cm^2/sr	12.65 E+04 p/s/cm^2/sr	28.62 E+04 p/s/cm^2/sr	40.56 E+06 p/s/cm^2/sr	17.29 E+04 p/s/cm^2/sr	1.38 E+06 p/s/cm^2/sr	6.881
CCCCCCCCCCCCCCCCCC(=O)OCC(COC(=O)CCCC(COC(=O)CCCCCCC)COC(=O)CCCCCCC)OC(=O)CCCCN(CCO)C1CCC1 (stereo not shown) [Compound 114]	0.206	89.95 nm	87.34%	mild expression	0.2 E+04 p/s/cm^2/sr	6.01 E+04 p/s/cm^2/sr	5.49 E+04 p/s/cm^2/sr	7.63 E+04 p/s/cm^2/sr	21.27 E+06 p/s/cm^2/sr	6.22 E+04 p/s/cm^2/sr	2.7 E+06 p/s/cm^2/sr	7.194
CCCCCCCC(=O)OCC(CCCC(=O)OCC(COC(=O)CCCCCCC)COC(=O)CCCCCCN(CCO)C1CCC1)COC(=O)CCCCCCC (stereo not shown) [Compound 78]	0.043	132 nm	87.30%	mild expression	0.51 E+04 p/s/cm^2/sr	3.25 E+04 p/s/cm^2/sr	3.65 E+04 p/s/cm^2/sr	7.88 E+04 p/s/cm^2/sr	11.41 E+06 p/s/cm^2/sr	3.83 E+04 p/s/cm^2/sr	2.07 E+06 p/s/cm^2/sr	6.864
CCCCC/C=C\C/C=C\CCCCCCCC(=O)OCC(COC(=O)CCC(OCCCCCCCC)OCCCCCCCC)COC(=O)OCCCN(CCO)C1CCCCC1 (stereo not shown) [Compound 126]	0.039	71.38 nm	91.87%	–	−1.44 E+04 p/s/cm^2/sr	10.48 E+04 p/s/cm^2/sr	23.71 E+04 p/s/cm^2/sr	29.29 E+04 p/s/cm^2/sr	54.3 E+06 p/s/cm^2/sr	15.58 E+04 p/s/cm^2/sr	0.73 E+06 p/s/cm^2/sr	6.154
